From ChEMBL document CHEMBL2396531, “Hybrid molecule from O2-(2,4-dinitrophenyl)diazeniumdiolate and oleanolic acid: a glutathione S-transferase π-activated nitric oxide prodrug with selective anti-human hepatocellular carcinoma activity and improved stability” (J Med Chem, 2013)
Active and inactive are the calls of the source. The rule behind the calls is not given here.

Assays:
Bel-7402 = experiment: Cytotoxicity against human Bel7402 cells at 30 uM after 24 hrs by MTT assay; format: functional
HepG2 [1] = experiment: Cytotoxicity against human HepG2 cells at 30 uM after 24 hrs by MTT assay; format: functional
SMMC-7721 = experiment: Cytotoxicity against human SMMC7721 cells at 30 uM after 24 hrs by MTT assay; format: functional
HepG2 [2] = experiment: Induction of intracellular NO release in human HepG2 cells at 10 uM after 24 hrs by DAF-FM DA staining-based flow cytometry; format: functional, cell-based
HepG2 [3] = experiment: Induction of intracellular NO release in human HepG2 cells at 30 uM after 6 hrs by Griess assay; format: functional, cell-based
HepG2 [4] = experiment: Cytotoxicity against human HepG2 cells at 10 to 100 uM after 24 hrs by MTT assay; format: functional, cell-based
HepG2 [5] = experiment: Cytotoxicity against human HepG2 cells assessed as cell viability at 3 uM after 24 hrs by MTT assay in presence of hemoglobin; format: functional, cell-based
HepG2 [6] = experiment: Cytotoxicity against human HepG2 cells assessed as cell viability at 3 uM after 24 hrs by MTT assay; format: functional
HepG2 [7] = experiment: Cytotoxicity against human HepG2 cells assessed as cell viability at 3 uM after 24 hrs by MTT assay in presence of EA; format: functional

SMILES	Activity (Bel-7402)	Activity (HepG2 [1])	Activity (SMMC-7721)	further results
CN1CCN(/[N+]([O-])=N\Oc2cc(NCCC(=O)O[C@H]3CC[C@]4(C)[C@H]5CC=C6[C@@H]7CC(C)(C)CC[C@]7(C(=O)O[C@@H]7O[C@H](CO)[C@H](O)[C@H](O)[C@H]7O)CC[C@@]6(C)[C@]5(C)CC[C@H]4C3(C)C)c([N+](=O)[O-])cc2[N+](=O)[O-])CC1	Active	Active	Active	
CCOC(=O)N1CCN(/[N+]([O-])=N/Oc2ccc([N+](=O)[O-])cc2[N+](=O)[O-])CC1				Activity (HepG2 [2]): Active
CN(CCO)/[N+]([O-])=N\Oc1cc(NCCC(=O)O[C@H]2CC[C@]3(C)[C@H]4CC=C5[C@@H]6CC(C)(C)CC[C@]6(C(=O)O[C@@H]6O[C@H](CO)[C@H](O)[C@H](O)[C@H]6O)CC[C@@]5(C)[C@]4(C)CC[C@H]3C2(C)C)c([N+](=O)[O-])cc1[N+](=O)[O-]				Activity (HepG2 [3]): Active
CN(CCO)/[N+]([O-])=N\Oc1cc(N2CCN(CC(=O)O)CC2)c([N+](=O)[O-])cc1[N+](=O)[O-]				Activity (HepG2 [4]): Active
CN(C)/[N+]([O-])=N\Oc1cc(NCCC(=O)O[C@H]2CC[C@]3(C)[C@H]4CC=C5[C@@H]6CC(C)(C)CC[C@]6(C(=O)O[C@@H]6O[C@H](CO)[C@H](O)[C@H](O)[C@H]6O)CC[C@@]5(C)[C@]4(C)CC[C@H]3C2(C)C)c([N+](=O)[O-])cc1[N+](=O)[O-]	Active	Active	Active	
C[C@H](Nc1cc(O/N=[N+](\[O-])N(C)CCO)c([N+](=O)[O-])cc1[N+](=O)[O-])C(=O)O[C@H]1CC[C@]2(C)[C@H]3CC=C4[C@@H]5CC(C)(C)CC[C@]5(C(=O)O[C@@H]5O[C@H](CO)[C@H](O)[C@H](O)[C@H]5O)CC[C@@]4(C)[C@]3(C)CC[C@H]2C1(C)C	Active	Active	Active	
CC1(C)CC[C@]2(C(=O)O[C@@H]3O[C@H](CO)[C@H](O)[C@H](O)[C@H]3O)CC[C@]3(C)C(=CC[C@@H]4[C@@]5(C)CC[C@H](OC(=O)CCNc6cc(O/N=[N+](/[O-])N7CCN(Cc8ccccc8)CC7)c([N+](=O)[O-])cc6[N+](=O)[O-])C(C)(C)[C@@H]5CC[C@]43C)[C@@H]2C1	Active	Active	Active	
CC1(C)CC[C@]2(C(=O)O[C@@H]3O[C@H](CO)[C@H](O)[C@H](O)[C@H]3O)CC[C@]3(C)C(=CC[C@@H]4[C@@]5(C)CC[C@H](O)C(C)(C)[C@@H]5CC[C@]43C)[C@@H]2C1				Activity (HepG2 [4]): Active
CCN(CC)/[N+]([O-])=N\Oc1cc(NCCC(=O)O[C@H]2CC[C@]3(C)[C@H]4CC=C5[C@@H]6CC(C)(C)CC[C@]6(C(=O)O[C@@H]6O[C@H](CO)[C@H](O)[C@H](O)[C@H]6O)CC[C@@]5(C)[C@]4(C)CC[C@H]3C2(C)C)c([N+](=O)[O-])cc1[N+](=O)[O-]	Active	Active	Active	
CN(CCO)/[N+]([O-])=N/Oc1cc(NCC(=O)O[C@H]2CC[C@]3(C)[C@H]4CC=C5[C@@H]6CC(C)(C)CC[C@]6(C(=O)O[C@@H]6O[C@H](CO)[C@H](O)[C@H](O)[C@H]6O)CC[C@@]5(C)[C@]4(C)CC[C@H]3C2(C)C)c([N+](=O)[O-])cc1[N+](=O)[O-]	Active	Active	Active	Activity (HepG2 [3]): Active
CC(C)C[C@H](Nc1cc(O/N=[N+](\[O-])N(C)CCO)c([N+](=O)[O-])cc1[N+](=O)[O-])C(=O)O[C@H]1CC[C@]2(C)[C@H]3CC=C4[C@@H]5CC(C)(C)CC[C@]5(C(=O)O[C@@H]5O[C@H](CO)[C@H](O)[C@H](O)[C@H]5O)CC[C@@]4(C)[C@]3(C)CC[C@H]2C1(C)C	Active	Active	Active	
CN(CCO)/[N+]([O-])=N/Oc1cc(NCCCC(=O)O[C@H]2CC[C@]3(C)[C@H]4CC=C5[C@@H]6CC(C)(C)CC[C@]6(C(=O)O[C@@H]6O[C@H](CO)[C@H](O)[C@H](O)[C@H]6O)CC[C@@]5(C)[C@]4(C)CC[C@H]3C2(C)C)c([N+](=O)[O-])cc1[N+](=O)[O-]	Active	Active	Active	
CN(CCO)/[N+]([O-])=N/Oc1cc(N[C@@H](Cc2ccccc2)C(=O)O[C@H]2CC[C@]3(C)[C@H]4CC=C5[C@@H]6CC(C)(C)CC[C@]6(C(=O)O[C@@H]6O[C@H](CO)[C@H](O)[C@H](O)[C@H]6O)CC[C@@]5(C)[C@]4(C)CC[C@H]3C2(C)C)c([N+](=O)[O-])cc1[N+](=O)[O-]	Active	Active	Active	
CN(CCO)c1cc(N2CCN(CC(=O)O[C@H]3CC[C@]4(C)[C@H]5CC=C6[C@@H]7CC(C)(C)CC[C@]7(C(=O)O[C@@H]7O[C@H](CO)[C@H](O)[C@H](O)[C@H]7O)CC[C@@]6(C)[C@]5(C)CC[C@H]4C3(C)C)CC2)c([N+](=O)[O-])cc1[N+](=O)[O-]				Activity (HepG2 [5]): inactive; Activity (HepG2 [6]): Active; Activity (HepG2 [7]): Active; Activity (HepG2 [4]): Active
